Data: patent publication US7709235B2, “5-Substituted hydantoin racemase, DNA encoding the same, recombinant DNA, transformed cell, and process for production of optically active N-carbamylamino acid or optically active amino acid” (priority 2005, dated 2010)

T1: hydantoin racemase of Pseudomonas sp. (Pseudomonas sp., UniProt Q00924)
T1 sequence (Q00924 1-249): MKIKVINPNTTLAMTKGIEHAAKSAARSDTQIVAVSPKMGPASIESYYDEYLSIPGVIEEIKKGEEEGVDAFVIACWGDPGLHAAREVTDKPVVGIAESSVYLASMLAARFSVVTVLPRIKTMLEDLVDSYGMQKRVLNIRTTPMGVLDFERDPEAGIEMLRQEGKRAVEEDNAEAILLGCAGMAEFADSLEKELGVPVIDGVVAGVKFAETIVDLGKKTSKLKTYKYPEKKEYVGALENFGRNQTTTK


What was measured:
[1] = tested on: hydantoin racemase produced by Bacillus sp. KNK519HR; assay: Substrate specificity with crude enzyme solution coupled with D-hydantoinase and D-N-carbamylamino acid amidohydrolase, D-alanine quantified by enzyme method; format: biochemical; conditions: L-5-isobutylhydantoin = 100, 50 mM substrate
Experimental: Substrate specificity of hydantoin racemase produced by Bacillus sp. KNK519HR was examined using a crude enzyme solution of Bacillus sp. KNK519HR that was produced according to the procedure described in Example 1. First, 0.1 ml of crude enzyme solution was added to each 0.9 ml of 50 mM Tris-HCl buffers (pH 7.5) containing 4 mM L-5-benzylhydantoin, 50 mM L-5-(2-methylthioethyl)hydantoin, and 8 mM L-5-isobutylhydantoin, respectively. The mixtures were allowed to react at 30° C., and the reaction was terminated by adding 0.1 ml of 1N HCl. The supernatant of a centrifuged reaction mixture was diluted two times with ion exchange water, and the D-5-substituted hydantoin compound generated in the reaction mixture was quantified by HPLC. HPLC analysis was performed under the following conditions. […] After neutralization with 1N NaOH, the reaction mixture was centrifuged and the D-alanine generated in the supernatant was quantified by an enzyme method using D-amino acid oxydase and peroxydase.
Quantification of D-alanine by the enzyme method was performed as follows. […] The mixture was allowed to react for 90 minutes, and an absorbance at 555 nm was measured to quantity the D-alanine generated in the reaction mixture. […]

[2] = tested on: hydantoin racemase enzyme solution of transformant; assay: Substrate specificity of hydantoin racemase of transformant; format: biochemical, Escherichia coli HB101 (pBHR001); conditions: activity for L-5-(2-methylthioethyl)hydantoin taken at 100, method of Example 2
Experimental: (§1) Substrate specificity of purified hydantoin racemase was examined. First, 0.1 ml of purified hydantoin racemase obtained in Example 1 was added to each 0.9 ml of 50 mM Tris-HCl buffers (pH 7.5) containing 50 mM L-5-(2-methylthioethyl)hydantoin, 50 mM D-5-(2-methylthioethyl)hydantoin, 13 mM D-5-(1-mercapto-1-methyl)ethylhydantoin, 8 mM L-5-isobutylhydantoin, 50 mM L-5-(1-methylpropyl)hydantoin, and 4 mM L-5-benzylhydantoin, respectively. The mixtures were allowed to react at 30° C., and the reaction was terminated by adding 0.1 ml of 1N HCl. Except for the reaction using the substrate D-5-(1-mercapto-1-methyl)ethylhydantoin, the reaction was analyzed by diluting the supernatant of a centrifuged reaction mixture two times with ion exchange water, and by quantifying the D-5-substituted hydantoin compound generated in the reaction mixture, using HPLC. HPLC analysis was performed under the conditions given above. For the reaction using the substrate D-5-(1-mercapto-1-methyl)ethylhydantoin, the reaction mixture was analyzed by quantifying a sample that had been obtained by extracting the reaction mixture with 1 ml of ethyl acetate. Analysis was performed by performing HPLC under the following conditions. Column: CHIRALPAK AD-H (Daicel), eluent: hexane/isopropanol=9/1, flow rate: 1 ml/min., column temperature: 25° C., detection: 210 nm.
Using the hydantoin racemase enzyme solution of transformant obtained in Example 7, substrate specificity was examined according to the method of Example 2. The result is shown in Table 4 as relative activities, taking the activity for L-5-(2-methylthioethyl)hydantoin at 100.

[3] = tested on: purified hydantoin racemase; assay: Substrate specificity of purified hydantoin racemase; format: biochemical, Bacillus sp. KNK519HR; conditions: purified enzyme; activity for L-5-(2-methylthioethyl)hydantoin taken at 100; 30° C., Tris-HCl pH 7.5; substrate 4-50 mM
Experimental: as §1

[4] = tested on: hydantoin racemase produced by Bacillus sp. KNK519HR; assay: Substrate specificity with crude enzyme solution of Bacillus sp. KNK519HR (HPLC); format: biochemical; conditions: activity for L-5-isobutylhydantoin taken at 100, 30° C., pH 7.5, HPLC of D-hydantoin
Experimental: Substrate specificity of hydantoin racemase produced by Bacillus sp. KNK519HR was examined using a crude enzyme solution of Bacillus sp. KNK519HR that was produced according to the procedure described in Example 1. First, 0.1 ml of crude enzyme solution was added to each 0.9 ml of 50 mM Tris-HCl buffers (pH 7.5) containing 4 mM L-5-benzylhydantoin, 50 mM L-5-(2-methylthioethyl)hydantoin, and 8 mM L-5-isobutylhydantoin, respectively. The mixtures were allowed to react at 30° C., and the reaction was terminated by adding 0.1 ml of 1N HCl. The supernatant of a centrifuged reaction mixture was diluted two times with ion exchange water, and the D-5-substituted hydantoin compound generated in the reaction mixture was quantified by HPLC. HPLC analysis was performed under the following conditions. Column: Chirobiotic T (4.6 mm×250 mm, ASTEC Inc., eluent: 0.01% (v/v) Triethylamine acetate (pH 6.8)/methanol=9/1, flow rate: 0.7 ml/min., column temperature: 35° C., detection: 210 nm. Further, 0.1 ml of crude enzyme solution of Bacillus sp. KNK519HR was added to 0.9 ml of 50 mM Tris-HCl buffer (pH 7.5) containing 50 mM 5-methylhydantoin, together with recombinant Escherichia coli having D-form selective hydantoinase activity for 1 ml of culture solution (described later), and recombinant Escherichia coli having D-form selective N-carbamylamino acid amidohydrolase activity for 1 ml of culture solution. The mixture was allowed to react at 30° C., and the reaction was terminated by adding 0.1 ml of 1N HCl. After neutralization with 1N NaOH, the reaction mixture was centrifuged and the D-alanine generated in the supernatant was quantified by an enzyme method using D-amino acid oxydase and peroxydase.

[5] = biological target: T1, hydantoin racemase of Pseudomonas sp.; conditions: Pseudomonas sp. enzyme; proportion of D-form at reaction time 10 minutes; L-5-(2-methylthioethyl)hydantoin = 100; cited from earlier work
[6] = tested on: purified hydantoin racemase; assay: Measurement of Km value (Lineweaver-Burk plot); format: biochemical, Bacillus sp. KNK519HR; conditions: FIG. 2
Experimental: A Km value for L-5-(2-methylthioethyl)hydantoin was determined from the Lineweaver-Burk plot.

[7] = Effective temperature range, optimum temperature, effective pH range and optimum pH of the enzyme; format: biochemical, Bacillus sp. KNK519HR; conditions: FIG. 3, activity at 40° C. taken at 100%
Experimental: Assessment was made as to effective temperature range and optimum temperature. FIG. 3 represents relative activities at different temperatures, taking the activity at 40° C. at 100%. The optimum temperature of the enzyme was 40° C., and the enzyme desirably exerted its action at all temperatures in the evaluated temperature range of 25° C. to 65° C.
Assessment was made as to effective pH range and optimum pH. […] The enzyme exerted its action in a pH range of 6 to 10. The optimum pH range was 8 to 9.

[8] = Temperature stability and pH stability of the enzyme (remaining activity); format: physicochemical, Bacillus sp. KNK519HR; conditions: FIG. 5
Experimental: Temperature stability of enzyme was examined as the remaining activity after 30 minutes of processing at different temperatures.
pH stability was examined. FIG. 6 represents remaining activity of enzyme after processing the enzyme at 30° C. for 16 hours at different pH, taking the activity of untreated enzyme at 100%. The enzyme was relatively stable in a pH range of 4.5 to 8.0.

[9] = Hydantoin racemase activity of purified enzyme, HPLC quantification of D-5-(2-methylthioethyl)hydantoin generated; format: biochemical, Bacillus sp. KNK519HR; conditions: 30° C., 30 minutes, 50 mM Tris-HCl buffer (pH 7.5), 50 mM L-5-(2-methylthioethyl)hydantoin; 1 unit = 1 μmol D-form per minute
Experimental: In an embodiment of the present invention, the hydantoin racemase activity of the polypeptide can be measured by, for example, quantification of D-5-(2-methylthioethyl)hydantoin generated at 30° C. in 30 minutes in 50 mM Tris (tris(hydroxymethyl)aminomethane)-HCl buffer (pH 7.5) containing 50 mM L-5-(2-methylthioethyl)hydantoin, using high-performance liquid chromatography (HPLC) or the like.
The activity of the purified hydantoin racemase was determined by HPLC, by quantifying the amount of increase of D-5-(2-methylthioethyl)hydantoin generated at 30° C. in 30 minutes in a 50 mM Tris-HCl buffer (pH 7.5) containing 50 mM L-5-(2-methylthioethyl)hydantoin. HPLC analysis was performed under the following conditions. Column: Chirobiotic T (4.6 mm×250 mm, ASTEC Inc.), eluent: 0.01% (v/v) triethylamine acetate (pH 6.8)/methanol=9/1, flow rate: 0.7 ml/min., column temperature: 35° C., detection: 210 nm. Here, 1 unit was defined as the amount of enzyme that generated 1 μmol D-5-(2-methylthioethyl)hydantoin in one minute. Quantification of protein was performed according to the Lowry method, using BSA as a standard.

[10] = Substrate inhibition of hydantoin racemase (crude enzyme solution); format: biochemical, Bacillus sp. KNK519HR; conditions: L-5-(2-methylthioethyl)hydantoin as substrate between 50 mM and 80 mM; initial rate, 30° C., FIG. 7
Experimental: Substrate inhibition of the hydantoin racemase produced by Bacillus sp. KNK519HR was examined using the crude enzyme solution prepared in Example 1. In a reaction mixture of 0.1-ml crude enzyme solution and each 0.9-ml of 50 mM Tris-HCl buffers (pH 7.5) respectively containing 5, 10, 50, and 80 mM L-5-(2-methylthioethyl)hydantoin, respectively, the reaction was performed at 30° C. for 10, 20, 30, and 40 minutes. After the reaction, hydantoin racemase activity was abolished by adding 0.1 ml of 1N HCl. The supernatant of the centrifuged reaction mixture was diluted two times with ion exchange water, and the D-5-(2-methylthioethyl)hydantoin generated in the reaction mixture was quantified by HPLC. HPLC analysis was performed under the same conditions used in Example 3. An initial reaction rate was determined at each initial substrate concentration. FIG. 7 represents a relationship between relative activity and initial substrate concentration.

Molecule	Relative Activity [2]	Relative Activity [3]	Relative Activity [4]	also measured
C[C@@H]1NC(=O)NC1=O [L-5-methylhydantoin]				Relative Activity [1]: 20
CC(C)(S)C1NC(=O)NC1=O [D-5-(1-mercapto-1-methyl)ethylhydantoin]	9	25		
O=C1NC(=O)[C@H](Cc2ccccc2)N1 [L-5-benzylhydantoin]	35	52	35	
CCC(C)[C@@H]1NC(=O)NC1=O (stereo partly drawn) [L-5-(1-methylpropyl)hydantoin]	2	2		Relative Activity [5]: 132
CSCC[C@@H]1NC(=O)NC1=O [L-5-(2-methylthioethyl)hydantoin]	100	100	61	Km [6]: 304 µM; Relative Activity [5]: 100
CC(C)C[C@@H]1NC(=O)NC1=O [L-5-isobutylhydantoin]	174	173	100	
CSCC[C@H]1NC(=O)NC1=O [D-5-(2-methylthioethyl)hydantoin]	52	49		
purified hydantoin racemase: hydantoin racemase from Bacillus sp. KNK519HR, polypeptide with the amino acid sequence of SEQ ID NO: 1 (protein, listed as Bacillus sp.) MKIKVINPNTTLAMTKGIEHAAKSAARSDTQIVAVSPKMGPASIESYYDEYLSIPGVIEEIKKGEEEGVDAFVIACWGDPGLHAAREVTDKPVVGIAESSVYLASMLAARFSVVTVLPRIKTMLEDLVDSYGMQKRVVNIRTTPMGVLDFERDPEAGIEMLRQEGKRAVEEDNAEAILLGCAGMAEFADSLEKELGVPVIDGVVAGVKFAEAIVDLGKKTSKLKTYKYPEKKEYVGALENFGLNQTTTK				optimum temperature [7]: 40 °C; remaining activity (temperature stability) ([8]; after 30 minutes of processing at 30° C.): 80%; remaining activity (temperature stability) ([8]; after 30 minutes of processing at 70° C.): almost all activity was lost; specific activity [9]: 24.2 unit/mg protein; substrate inhibition [10]: had substrate inhibition
